Experiments:
Type in all cases: in vivo, rat
[1] = system: β-MHC mRNA; assay: Northern blot, β-MHC mRNA in heart
Experimental: (§1) Seventy-nine male SIVZ rats were purchased from the breeder (Institut für Labortierkunde des Universität Zürich, Zürich, Switzerland). They were rendered hypothyroid by a single injection of [^131I]Na (100 μCi/rat) and before and throughout the experiment 0.02% 2-mercapto-1-methylimidazol (MMI) was added to drinking water. In order to have an euthyroid control group of similar weight and identical age, 10 rats received only MMI in the drinking water and 2 weeks before implanting the minipumps, MMI was withdrawn. Osmotic minipumps (secretion rate 0.25 μl/hour, duration 14 days) were implanted intraperitoneally (i.p.) 2 months after the injection of [^131I]Na. The minipumps were filled with T4 or Tetrac dissolved in 0.05 N NaOH, 2% BSA and 100,000 cpm [^125I]T4 or [^125I]Tetrac as control of their secretion rates. The infusion lasted 13 days. 0, 1.5, 4.5, 13.5 and 40.5 nmol Tetrac/day/100 g or 0.5, 1.5, 4.5 and 13.5 nmol T4/day/100 g bodyweight (BW) (n=4/dose) were infused. An euthyroid control group was included. The animals were weighed every 2 days. Rats were sacrificed by decapitation and blood was collected and stored at […] until use. Tissues (liver, heart, brown adipose tissue, cerebral cortex and pituitary) were removed rapidly, frozen in liquid nitrogen and stored at […] until use.
(§2) Total RNA extraction and Northern Blot hybridization Total RNA was extracted with the method of Chomczynski and Sacchi (Chomczynski, P. and Sacchi, N. Anal. Biochem. (1987) 162: 156-159). […]
(§3) The amount of labeled mRNA was quantified by scanning laser densitometry (Phosphorimager, Molecular Dynamics; Sunnyvale, USA). Variations in RNA loading and membrane transfer were corrected by densitometric quantification of a negative photograph of 28S and 18S ribosomal RNA bands from ethidium bromide stained RNA gels. […]

[2] = system: TSH; assay: Serum TSH in hypothyroid rats infused with Tetrac or T4; details: for Serum TSH: hypothyroid rats, mean ± SEM
Experimental: Seventy-nine male SIVZ rats were purchased from the breeder (Institut für Labortierkunde des Universität Zürich, Zürich, Switzerland). […] The infusion lasted 13 days. […] An euthyroid control group was included. The animals were weighed every 2 days. Rats were sacrificed by decapitation and blood was collected and stored at […] until use. Tissues (liver, heart, brown adipose tissue, cerebral cortex and pituitary) were removed rapidly, frozen in liquid nitrogen and stored at […] until use.
Hornone assays. […] Endocrinol. […] Serum TSH measurements were performed with reagents kindly provided by the National Pituitary Program, NIAMDD, NIH (Bethesda, USA).

[3] = system: Monodeiodinase type 2; assay: Monodeiodinase type 2 activity in brain cortex and brown adipose tissue of infused rats; details: infused rats, remaining activity, adjusted group mean at the mean Ln (TSH) concentration
Experimental: as §1
Monodeiodinase type 1 and 2 activities. Monodeiodinase type 1 and type 2 activities were determined in tissue homogenates by measuring the release of radioiodide from [^125I]rT3 according to the method of Leonard and Rosenberg (Leonard, J. L. et al. Endocrinology (1980) 106: 444-451).
Monodeiodinase type 1 activity was measured in liver homogenates using 1 μM rT3 and 1 mM DTT with 10 min of incubation, whereas for heart, 0.01 μM rT3 and 10 mM DTT with 1 hour of incubation. Monodeiodinase type 2 activity was measured in brown adipose tissue (BAT) and cerebral cortex using 1 nM rT3, 10 mM DTT and 1 mM propylthiouracil (PTU) with 1 hour of incubation. Protein concentrations were measured by the method of Bradford (Bio-Rad Laboratories GmbH, Munich, Germany) with bovine gammaglobulin as the protein standard. In order to study the effect of circulating Tetrac on the enzyme activities, 2 rats were injected intraperitoneally with 10 μCi ^125I Tetrac and killed 6 hours later. The tissue homogenates were extracted with 3 volumes of ethanol-NH3 (97:3). After 10 minutes centrifugation at 15,000 g, the supernatant was vacuum dried and applied to TLC (Merck 254, Toluol, acetic acid, water: 2:2:1). In order to calculate the tissue concentrations, the highest serum Tetrac levels were used (406 pmol/ml). The calculated tissue concentrations were: liver: 1.9, heart: 2.29 and brain cortex: 0.47 fluol Tetrac/μg protein.

[4] = system: GH mRNA; assay: Northern blot, growth hormone mRNA in pituitary
Experimental: as §1, §2, §3

[5] = system: monodeiodinase type 1 mRNA; assay: Northern blot, hepatic monodeiodinase type 1 mRNA; details: Liver
Experimental: as §1, §2, §3

[6] = infused rats, adjusted group mean at the mean Ln (TSH) concentration

`O=C(O)Cc1cc(I)c(Oc2cc(I)c(O)c(I)c2)c(I)c1` [Tetrac, 3,3′,5,5′-tetraiodothyroacetic acid] was tested, and the “β-MHC mRNA, Tetrac/T4 (activity of Tetrac in % of T4)” value [1] was 66%, the “β-MHC mRNA, adjusted mean” value [1, 6] was 328 arbitrary units and the “Serum TSH” value ([2]; infusion 1.5 nmol/day/100 g BW) was 90.3 ± 8.6 ng/mL. For the same molecule, the “Serum TSH” value ([2]; infusion 4.5 nmol/day/100 g BW) was 4.6 ± 0.5 ng/mL, the “Serum TSH” value ([2]; infusion 13.5 nmol/day/100 g BW) was 1.2 ± 0.3 ng/mL and the “Serum TSH” value ([2]; infusion 40.5 nmol/day/100 g BW) was less than 0.8 ng/mL. For the same molecule, the “Serum TSH concentration, mean of treatment group” value ([2]; mean over all dose levels of the treated rats, p=<0.04) was 24 ng/mL, the “Residual monodeiodinase type 2 activity, adjusted mean” value ([3]; BAT) was 28 and the “Residual monodeiodinase type 2 activity, adjusted mean” value ([3]; Brain Cortex) was 27.7. For the same molecule, the “GH mRNA, Tetrac/T4 (activity of Tetrac in % of T4)” value [4] was 71%, the “GH mRNA, adjusted mean” value [4, 6] was 20280 arbitrary units and the “Residual Monodeiodinase type 1 mRNA, Tetrac/T4 (activity of Tetrac in % of T4)” value ([5]; at equal serum TSH concentration) was 49%. For the same molecule, the “Residual Monodeiodinase type 1 mRNA, adjusted mean” value [5, 6] was 2.48 arbitrary units.

Reference: patent US6740680B1, “Pharmaceutical compositions to tetrac and methods of use thereof” (Becton Pharma, Inc., priority 1999, dated 2004)
